Test results from patent US20070092942A1, “Ubiquitin specific enzymes of family herpesviridae” (priority 2005, published 2007).

Key:
His6UL36^USP = target: T1, His6UL36^USP (Human herpesvirus 1, UniProt P10220); experiment: Cleavage of Ub-AMC by recombinant UL36^USP; assay type: biochemical, HSV-1; details: 10 pmol inhibitor pre-incubated 30 minutes with ~0.1 pmol enzyme
T1 construct: amino acids 1 to 533 of the UL36 gene product from HHV HSV1; 6-His (pET-28a(+)) (N); 6-His (pET-28a(+)) (C); made in house; host or cells: E. coli BL21 or BL21 RIPL
Experimental: Recombinant UL36^USP and UL36^USP/C65A (˜0.1 pmol) were incubated in 125 μl kinetics buffer (50 mM HEPES, pH 7.5, 0.5 mM EDTA) supplemented with 1 mM DTT at room temperature for 10 minutes. To this was added 75 μl of Ub-AMC (250 nM in kinetics buffer) and AMC liberation was measured at 25° C. For inhibition experiments, one of UbVME, SUMO-VME, ISG15-VS, or Nedd8-VS (10 pmol) was incubated with recombinant UL36^USP (˜0.1 pmol) for 30 minutes at room temperature. To this was added 75 μl of Ub-AMC (250 nM in kinetics buffer) and AMC liberation was measured. Cleavage experiments were performed in triplicate. All fluorescence measurements were made using a Wallac Victor^3 1420 fluorescence/luminescence plate reader (Perkin Elmer) using 380 nm excitation and 460 nm emission wavelengths, with 5 second intervals between measurements. Data were exported as an Excel file and plotted as mean values of replicate experiments using Kaleidagraph v3.6 (Synergy Software).
In a typical eukaryotic cell, the presence of multiple DUBs, whose substrate pool and catalytic activities may overlap, confounds straightforward analysis of the activity of any one particular DUB. Although we have found excellent correlation between labeling of polypeptides with the Ub/UbL probes and their identification as active DUBs, the probes are covalent inactivators and cannot be used to assess enzymatic (i.e. catalytic) peptidase activity. To validate the activity of UL36^USP as a protease with specificity for Ub-modified substrates, we cloned a sequence spanning the 533 N-terminal amino acids of HSV-1 UL36^USP into a His-tagged expression vector (His6-UL36^USP). We also generated a point mutant of this construct in which the active site cysteine residue, Cys^65, was replaced by alanine (His6UL36^USP/C65A). The proteins were expressed, purified over Ni-NTA resin and evaluated for their ability to cleave Ub C-terminal 7-amido-4-methylcoumarin (Ub-AMC) (Dang et al., 1998). […] The results are consistent with the labeling experiments using UbL probes with HSV-1-infected lysates (FIG. 4B).

UL36^USP = experiment: Electrophilic probe labeling of HSV-1 infected HFF cell lysates, immunoblot; assay type: binding; details: for Labeling / reaction of UL36^USP by electrophilic probe: HSV-infected HFF lysates, immunoblot
Experimental: HFFs were infected with HSV-1 KOS at an MOI of 10 and harvested by trypsinolysis at the indicated times post infection. Cells were washed 1× in PBS and pelleted by centrifugation in a microcentrifuge at 3,000×g for 20 minutes at 4° C. Cells were lysed by adding 2× the pellet volume of NP40 lysis buffer (150 mM NaCl, 50 mM Tris pH 7.4, 5 mM MgCl2, 0.5 mM EDTA, 2 mM DTT, 2 mM ATP, 0.5% NP40) and rocking at 4° C. for 1 hour. Cell lysates were centrifuged at 12,000×g for 20 minutes at 4° C. Protein concentration of supernatants was established by Bradford assay and lysates were standardized to 5 μg/μl by the addition of the required volume of NP40 lysis buffer. For each labeling reaction, 50 μg of lysate was incubated with 0.8 μg of probe in a total volume of 60 μL of homogenization buffer (50 mM Tris pH 7.5, 5 mM MgCl2, 0.5 mM EDTA, 2 mM DTT, 2 mM ATP, 250 mM sucrose). For reactions involving NEM, lysates were incubated at room temperature for 30 minutes with 5 mM NEM prior to addition of probe. Reactions were incubated for 30 minutes at R.T. Samples were boiled in reducing sample buffer and separated by SDS-PAGE. Proteins were transferred to PVDF membranes and immunoblotted with mouse monoclonal anti-HA antibody (12CA5) at 1:4000 dilution followed by goat anti-mouse IgG-HRP (Southern Biotech) at 1: 10,000 dilution. Blots were developed using Western Lightning chemiluminescence reagent (Perkin Elmer).
To profile DUB activity during HSV-1 infection, we used HA-tagged Ub-vinylmethyl ester (HAUbVME) (Borodovsky et al., 2002). Human foreskin fibroblasts (HFFs) were infected with HSV-1 at a multiplicity of infection of 10, harvested at 4, 6, 9, 12, 22 and 30 hours post-infection (p.i.), and lysed.
To address whether UL36^USP labeling by HAUbVME was a consequence of the Ub or the VME moiety, we incubated lysates of HSV-infected HFFs at 24 hours p.i. with related electrophilic derivatives (Borodovsky et al., 2002). […] There are a number of Ub-like (UbL) proteins in eukaryotes (Larsen and Wang, 2002). This family of UbL proteins has diversified functionally to cover many cellular pathways: SUMO proteins function in nuclear signaling and transcription (Hay, 2005); ISG15 is an interferon-inducible gene product (Ritchie and Zhang, 2004); and the closest homolog of Ub, Nedd8, is an activator of the cullin family of E3 Ub ligases (Petroski and Deshaies, 2005; Willems et al., 2004). Probes derived from Ub and UbL modifiers target proteases that are either specific for a single Ub/UbL or selective for a limited number of these proteases (Borodovsky et al., 2002; Hemelaar et al., 2004). We explored the reactivity of UL36^USP with Ub and UbL-derived probes to determine its specificity. We incubated lysates of mock-infected and HSV-infected HFFs at 24 hours p.i. with either HAUbVME or with one of three UbL probes, HA-SUMO-1-VME, HA-ISG15-VME or FLAG-Nedd8-VS (FIG. 4B).

EBV205 = target: T2, EBV205 (Epstein-Barr virus, UniProt P03186); assay type: biochemical; details: enzyme 100 pM, Ub-AMC 100 nM
T2 construct: encoding for AA 1-205 of EBV (EBV205) and AA 1-285 of mCMV (mCMV285); His-tag (pET28) (N); made in house; host or cells: E. coli BL21-DE3
Experimental: (§1) We next tested the ability of the enzymes to cleave Ub-AMC (Ub C-terminal 7-amido-4-methylcoumarin, Boston Biochem). UbAMC hydrolysis assays were performed in reaction buffer supplemented with BSA (50 μg/ml) by incubating the enzymes (100 pM) with a large excess of Ub-AMC (100 nM). […] To address this issue, we tested the potential of several inhibitors to block DUB activity in Ub-AMC hydrolysis assays. Enzymes were preincubated for 1 h with a 100-fold molar excess of electrophilic derivatives of Ub, SUMO, NEDD8, and ISG15, all carrying a VME moiety as the electrophile at their C-terminus.

mCMV285, mCMV575 = experiment: UbAMC hydrolysis assay with mCMV285 and mCMV575; assay type: biochemical, mouse cytomegalovirus; details: enzyme 100 pM, Ub-AMC 100 nM
Experimental: as §1

[1] = target: T3, EBV205 (AA 1-205 of EBV BPLF1) (Epstein-Barr virus, UniProt P03186); assay type: binding
T3 construct: encoding for AA 1-205 of EBV (EBV205) and AA 1-285 of mCMV (mCMV285); His-tag (pET28) (N); made in house; host or cells: E. coli BL21-DE3
Description: (§2) To investigate functionality of this minimal DUB consensus domain we cloned the relevant genomic fragments for heterologous expression and subsequent biochemical characterization. The corresponding DNA fragments, encoding for AA 1-205 of EBV (EBV205) and AA 1-285 of mCMV (mCMV285), were PCR-cloned into pET28 according to standard procedures. Following expression in E. coli BL21-DE3, the fragments bearing a N-terminal His-tag were purified using a Ni-NTA resin (Qiagen) and subsequently subjected to a gel filtration column (S75 HiLoad, Amersham Pharmacia Biotech) equilibrated in storage buffer (50 mM Tris, 50 mM KCl, 50 mM NaCl, 0.5 mM EDTA, 2 mM DTT, 10% (v/v) glycerol, pH 7.5) to achieve apparent homogeneity. To address whether the purified constructs display DUB activity, we used HA-tagged Ub-vinylmethyl ester (HAUbVME), a probe that acts as suicide substrate for DUBs by forming a thioether bond to the active site cysteine. Reactions were performed using final concentrations of 1 μM enzyme (EBV205 or mCMV285) in the absence and presence of 2 μM HAUbVME in reaction buffer (50 mM Tris, 100 mM NaCl, 1 mM DTT pH 7.5) for 30 min at 37° C. Following incubation, samples were boiled in reducing sample buffer and subjected to SDS-PAGE.
(§3) In the case of mCMV, we also constructed a longer variant that terminates at position 575 (mCMV575).

[2] = system: mCMV285, mCMV575 (mCMV UL36 homologue); experiment: HAUbVME labeling of purified recombinant mCMV285 / mCMV575, SDS-PAGE and immunoblot; assay type: binding, mouse cytomegalovirus
Description: as §2, §3

[3] = preincubated 1 h with 100-fold molar excess of inhibitor
[4] = pretreatment with 10 mM NEM for 10 min
[5] = 1 μM enzyme, 2 μM HAUbVME, 30 min at 37° C.

“ISG15-VS: electrophilic ISG15 derivative used as inhibitor” was tested, and the “Inhibition of Ub-AMC cleavage by His6UL36^USP” value (“Inhibition of Ub-AMC cleavage” below) (His6UL36^USP) was “rates nearly identical to hydrolysis in the absence of these inhibitors”.

For “HA-ISG15-VME: UbL probe (18.8 kDa), HA-tagged ISG15 vinylmethyl ester”, the “Labeling / reaction of UL36^USP by electrophilic probe” value (“Labeling / reaction of UL36^USP” below) (UL36^USP) was “did not observe reaction”.

With “HAUbVS: HAUb-vinylsulfone, Ub-derived electrophilic probe” the “Labeling / reaction of UL36^USP” value (UL36^USP) was “comparably robust labeling”.

“Nedd8-VS: electrophilic Nedd8 vinylsulfone derivative used as inhibitor” was tested, and the “Inhibition of Ub-AMC cleavage” value (His6UL36^USP) was “rates nearly identical to hydrolysis in the absence of these inhibitors”.

“UbVME: electrophilic derivative of Ub carrying a VME moiety at its C-terminus, covalent DUB inhibitor” was tested, and the “Inhibition of Ub-AMC cleavage” value (His6UL36^USP) was “complete inhibition”, the “Inhibition of UbAMC hydrolytic activity of EBV205” value (EBV205; [3]) was “completely inhibited” and the “Inhibition of UbAMC hydrolytic activity of mCMV285 / mCMV575” value (mCMV285, mCMV575; [3]) was “completely inhibited”.

“SUMO-1-VS: electrophilic SUMO-1 derivative used as inhibitor” was tested, and the “Inhibition of Ub-AMC cleavage” value (His6UL36^USP) was “rates nearly identical to hydrolysis in the absence of these inhibitors”.

“HA-SUMO-1-VME: UbL probe (12.8 kDa), HA-tagged SUMO-1 vinylmethyl ester” was tested, and the “Labeling / reaction of UL36^USP” value (UL36^USP) was “did not observe reaction”.

CCN1C(=O)C=CC1=O [NEM, N-ethylmaleimide] was tested, and the “Effect on labeling of the 57 kDa polypeptide with HAUbVME” value (UL36^USP; HSV-1 infected HFF lysates, 5 mM NEM 30 minutes prior to probe) was “inhibited”, the “Effect on labeling of EBV205 with HAUbVME probe” value [1, 4] was “completely blocked labeling” and the “Effect on reaction of mCMV575 with HAUbVME” value ([2]; mCMV575 variant) was “NEM-sensitive”. For the same compound, the “Effect on labeling of mCMV285 with HAUbVME probe” value [2, 4] was “completely blocked labeling”, the “Sensitivity of UbAMC hydrolysis by EBV205 to NEM” value (EBV205) was “sensitive to NEM” and the “Sensitivity of UbAMC hydrolysis by mCMV285 / mCMV575 to NEM” value (mCMV285, mCMV575) was “sensitive to NEM”.

“FLAG-Nedd8-VS: UbL probe (9.7 kDa), FLAG-tagged Nedd8 vinylsulfone” was tested, and the “Labeling / reaction of UL36^USP” value (UL36^USP) was “did not observe reaction”.

For “HAUbVME: HA-tagged Ub-vinylmethyl ester, electrophilic Ub probe forming thioether bond to DUB active site cysteine”, the “Labeling / reaction of UL36^USP” value (UL36^USP) was “observed labeling”, the “Covalent modification of EBV205 by probe (shift in electrophoretic mobility)” value [1, 5] was “covalent modification” and the “Covalent modification of mCMV285 by probe (shift in electrophoretic mobility)” value [2, 5] was “covalent modification”.
